Assay results: patent US20220412955A1, “A MODEL OF CLINICAL SYNERGY IN CANCER” (priority 2019, published 2022)

Tested on: primary MM cells
Type: cell-based
Conditions: patient 210's primary MM cells, 0.05 μM, interval of 120 hours
Procedure: Each well was imaged every 30 minutes for a total duration of up to 6 days.

CC(C)C[C@H](NC(=O)[C@H](CCc1ccccc1)NC(=O)CN1CCOCC1)C(=O)N[C@@H](Cc1ccccc1)C(=O)N[C@@H](CC(C)C)C(=O)[C@@]1(C)CO1 [carfilzomib]
delay between start of treatment and initiation of cell death: ~30 h
